{"source": "patent US6187810A", "about": "“Macrocyclic compounds made from suboxide units” (Donatur Dr. Kerek GmbH, priority 1996, dated 2001)", "key": {"[1]": {"system": "hemoglobin", "conditions": "cited from earlier work"}, "[2]": {"system": "mice", "conditions": "cited from earlier work; for toxicity in words (blood toxin, irritation): mouse, in vivo"}, "[3]": {"assay": "Acute toxicity of cardiac glycosides applied together with the active substances", "type": "in vivo", "text": "Furthermore, as was experimentally established, the active substances according to the invention are capable to control the activity of several other essential enzymes, for example collegenases, hyaluronidases, phosphokinases and other enzymes. According to all indications, the active substances according to the invention are useable as endogenous ligands of the Na^+,K^+ -ATPase enzyme."}}, "note": "Where two headings read alike, the source gives them in different places.", "data": [{"smiles": "O=C=C=C=O", "note": "[C3 O2, carbon suboxide]", "values": [{"measurement": "binding to hemoglobin", "setting": "[1]", "result": "irreversibly binds hemoglobin"}, {"measurement": "tolerability limit in mice", "setting": "[2]; C3 O2 in dry air", "result": "0.2-0.4%"}, {"measurement": "toxicity in words (blood toxin, irritation)", "setting": "[2]", "result": "irritating to mucus membranes"}, {"measurement": "toxicity in words (blood toxin, irritation)", "setting": "[2]; listed as Carbon suboxide", "result": "relatively strong blood toxin"}]}, {"smiles": "C[C@@H]1O[C@@H](O[C@H]2CC[C@]3(C=O)[C@H]4CC[C@]5(C)[C@@H](c6ccc(=O)oc6)CC[C@]5(O)[C@@H]4CC[C@]3(O)C2)[C@H](O)[C@H](O)[C@H]1O[C@@H]1O[C@H](CO)[C@@H](O)[C@H](O)[C@H]1O", "note": "[hellebrin]", "values": [{"measurement": "LD50", "setting": "[3]; with active substances at molar ratio 0.02 to 2/1 mol glycoside, preferably 1:1", "result": "considerably higher"}]}, {"smiles": "C[C@@H]1O[C@@H](O[C@H]2C[C@@H](O)[C@]3(CO)[C@H]4[C@H](O)C[C@]5(C)[C@@H](C6=CC(=O)OC6)CC[C@]5(O)[C@@H]4CC[C@]3(O)C2)[C@H](O)[C@H](O)[C@H]1O", "note": "[ouabain]", "values": [{"measurement": "toxic side-effects of cardiac glycoside", "setting": "[3]; active substances applied together with the glycoside", "result": "reduction of the toxic side-effects"}]}]}
